# ChEMBL document CHEMBL4706583, “2-Anilinoquinoline based arylamides as broad spectrum anticancer agents with B-RAF/C-RAF kinase inhibitory effects: Design, synthesis, in vitro cell-based and oncogenic kinase assessments” (Eur J Med Chem, 2020)
# Calls of active or inactive are those of the source. The calls are words filed in the database; no cut-off is given here.
# Tests used:
# [1] = system: SF-539; test: Growth inhibition of human SF-539 cells measured after 48 hrs by SRB assay; assay type: functional
# [2] = system: SK-MEL-5; test: Growth inhibition of human SK-MEL-5 cells measured after 48 hrs by SRB assay; assay type: functional
# [3] = system: RXF 393; test: Growth inhibition of human RXF 393 cells measured after 48 hrs by SRB assay; assay type: functional
# [4] = system: HCT-116; test: Induction of apoptosis in human HCT-116 cells assessed as late apoptotic cells at 2.5 uM measured after 48 hrs by Annexin-V Alexa Fluor488/propidium iodide staining based flow cytometry (reference value: 2.2%); assay type: functional
# [5] = system: NCI-H322M; test: Growth inhibition of human NCI-H322M cells measured after 48 hrs by SRB assay; assay type: functional
# [6] = system: MDA-MB-231; test: Growth inhibition of human MDA-MB-231 cells measured after 48 hrs by SRB assay; assay type: functional
# [7] = system: HCT-116; test: Induction of apoptosis in human HCT-116 cells assessed as late apoptotic cells at 5 uM measured after 48 hrs by Annexin-V Alexa Fluor488/propidium iodide staining based flow cytometry (reference value: 2.2%); assay type: functional
# [8] = biological target: High affinity nerve growth factor receptor (Homo sapiens, UniProt P04629); test: Inhibition of human TRKA using poly[Glu:Tyr] (4:1) as substrate in presence of [gamma-33P]ATP by scintillation counting method
# [9] = system: SW-620; test: Growth inhibition of human SW-620 cells measured after 48 hrs by SRB assay; assay type: functional
# [10] = system: HCT-116; test: Growth inhibition of human HCT-116 cells measured after 48 hrs by SRB assay; assay type: functional
# [11] = Cytotoxicity against human L132 cells assessed as cell viability at 10 uM measured after 48 hrs by EZ-Cytox assay relative to control; assay type: cell-based; conditions: read-out: Activity
# [12] = system: A498; test: Growth inhibition of human A498 cells measured after 48 hrs by SRB assay; assay type: functional
# [13] = system: MCF7; test: Growth inhibition of human MCF7 cells measured after 48 hrs by SRB assay; assay type: functional
# [14] = system: MDA-MB-468; test: Growth inhibition of human MDA-MB-468 cells measured after 48 hrs by SRB assay; assay type: functional
# [15] = biological target: Serine/threonine-protein kinase B-raf (Homo sapiens, UniProt P15056); test: Inhibition of human BRAF using MEK1 (K97R) as substrate in presence of [gamma-33P]ATP by scintillation counting method
# [16] = system: SK-MEL-2; test: Growth inhibition of human SK-MEL-2 cells measured after 48 hrs by SRB assay; assay type: functional
# [17] = system: HCT-116; test: Induction of apoptosis in human HCT-116 cells assessed as late apoptotic cells at 2.5 uM measured after 24 hrs by Annexin-V Alexa Fluor488/propidium iodide staining based flow cytometry (reference value: 1%); assay type: functional
# [18] = organism: Sus scrofa; test: Induction of porcine brain tubulin polymerization at 10 uM measured at 30 secs interval for 60 mins by fluorescence assay; assay type: tissue-based
# [19] = system: BT-549; test: Growth inhibition of human BT-549 cells measured after 48 hrs by SRB assay; assay type: functional
# [20] = system: COLO 205; test: Growth inhibition of human COLO 205 cells measured after 48 hrs by SRB assay; assay type: functional
# [21] = system: HCT-116; test: Induction of apoptosis in human HCT-116 cells assessed as early apoptotic cells at 5 uM measured after 48 hrs by Annexin-V Alexa Fluor488/propidium iodide staining based flow cytometry (reference value: 7.7%); assay type: functional
# [22] = system: HCT-116; test: Induction of apoptosis in human HCT-116 cells assessed as necrotic cells at 5 uM measured after 48 hrs by Annexin-V Alexa Fluor488/propidium iodide staining based flow cytometry (reference value: 7.7%); assay type: functional
# [23] = system: HCT-116; test: Induction of apoptosis in human HCT-116 cells assessed as necrotic cells at 1.25 uM measured after 48 hrs by Annexin-V Alexa Fluor488/propidium iodide staining based flow cytometry (reference value: 7.7%); assay type: functional
# [24] = biological target: Epithelial discoidin domain-containing receptor 1 (Homo sapiens, UniProt Q08345); test: Inhibition of human DDR1 using KKSRGDYMTMQIG as substrate in presence of [gamma-33P]ATP by scintillation counting method
# [25] = system: HT-29; test: Growth inhibition of human HT-29 cells measured after 48 hrs by SRB assay; assay type: functional; conditions: for CC50: read-out: LC50 (the source's name)
# [26] = system: OVCAR-8; test: Growth inhibition of human OVCAR-8 cells measured after 48 hrs by SRB assay; assay type: functional
# [27] = system: SK-OV-3; test: Growth inhibition of human SK-OV-3 cells measured after 48 hrs by SRB assay; assay type: functional
# [28] = system: HCC 2998; test: Growth inhibition of human HCC 2998 cells measured after 48 hrs by SRB assay; assay type: functional
# [29] = Cytotoxicity against African green monkey Vero cells assessed as cell viability at 10 uM measured after 48 hrs by EZ-Cytox assay relative to control; assay type: cell-based; conditions: chlorocebus sabaeus, read-out: Activity
# [30] = system: HCT-116; test: Induction of apoptosis in human HCT-116 cells assessed as viable cells at 1.25 uM measured after 24 hrs by Annexin-V Alexa Fluor488/propidium iodide staining based flow cytometry (reference value: 88.1%); assay type: functional; conditions: read-out: Activity
# [31] = system: HCT-116; test: Induction of apoptosis in human HCT-116 cells assessed as necrotic cells at 2.5 uM measured after 24 hrs by Annexin-V Alexa Fluor488/propidium iodide staining based flow cytometry (reference value: 4.6%); assay type: functional
# [32] = system: CAKI-1; test: Growth inhibition of human CAKI-1 cells measured after 48 hrs by SRB assay; assay type: functional
# [33] = system: HCT-116; test: Induction of apoptosis in human HCT-116 cells assessed as viable cells at 5 uM measured after 48 hrs by Annexin-V Alexa Fluor488/propidium iodide staining based flow cytometry (reference value: 82.3%); assay type: functional; conditions: read-out: Activity
# [34] = system: ACHN; test: Growth inhibition of human ACHN cells measured after 48 hrs by SRB assay; assay type: functional
# [35] = system: OVCAR-3; test: Growth inhibition of human OVCAR-3 cells measured after 48 hrs by SRB assay; assay type: functional
# [36] = Cytotoxicity against human L132 cells assessed as cell viability at 3 uM measured after 48 hrs by EZ-Cytox assay relative to control; assay type: cell-based; conditions: read-out: Activity
# [37] = system: NCI/ADR-RES; test: Growth inhibition of human NCI/ADR-RES cells measured after 48 hrs by SRB assay; assay type: functional
# [38] = system: HCT-15; test: Growth inhibition of human HCT-15 cells measured after 48 hrs by SRB assay; assay type: functional
# [39] = Cytotoxicity against African green monkey Vero cells assessed as cell viability at 1 uM measured after 48 hrs by EZ-Cytox assay relative to control; assay type: cell-based; conditions: chlorocebus sabaeus, read-out: Activity
# [40] = system: NCI-H226; test: Growth inhibition of human NCI-H226 cells measured after 48 hrs by SRB assay; assay type: functional
# [41] = system: PC-3; test: Growth inhibition of human PC-3 cells measured after 48 hrs by SRB assay; assay type: functional
# [42] = system: DU-145; test: Growth inhibition of human DU-145 cells measured after 48 hrs by SRB assay; assay type: functional
# [43] = system: T47D; test: Growth inhibition of human T47D cells measured after 48 hrs by SRB assay; assay type: functional
# Sequence of Epithelial discoidin domain-containing receptor 1 (Q08345 whole entry, the tested form may be a part): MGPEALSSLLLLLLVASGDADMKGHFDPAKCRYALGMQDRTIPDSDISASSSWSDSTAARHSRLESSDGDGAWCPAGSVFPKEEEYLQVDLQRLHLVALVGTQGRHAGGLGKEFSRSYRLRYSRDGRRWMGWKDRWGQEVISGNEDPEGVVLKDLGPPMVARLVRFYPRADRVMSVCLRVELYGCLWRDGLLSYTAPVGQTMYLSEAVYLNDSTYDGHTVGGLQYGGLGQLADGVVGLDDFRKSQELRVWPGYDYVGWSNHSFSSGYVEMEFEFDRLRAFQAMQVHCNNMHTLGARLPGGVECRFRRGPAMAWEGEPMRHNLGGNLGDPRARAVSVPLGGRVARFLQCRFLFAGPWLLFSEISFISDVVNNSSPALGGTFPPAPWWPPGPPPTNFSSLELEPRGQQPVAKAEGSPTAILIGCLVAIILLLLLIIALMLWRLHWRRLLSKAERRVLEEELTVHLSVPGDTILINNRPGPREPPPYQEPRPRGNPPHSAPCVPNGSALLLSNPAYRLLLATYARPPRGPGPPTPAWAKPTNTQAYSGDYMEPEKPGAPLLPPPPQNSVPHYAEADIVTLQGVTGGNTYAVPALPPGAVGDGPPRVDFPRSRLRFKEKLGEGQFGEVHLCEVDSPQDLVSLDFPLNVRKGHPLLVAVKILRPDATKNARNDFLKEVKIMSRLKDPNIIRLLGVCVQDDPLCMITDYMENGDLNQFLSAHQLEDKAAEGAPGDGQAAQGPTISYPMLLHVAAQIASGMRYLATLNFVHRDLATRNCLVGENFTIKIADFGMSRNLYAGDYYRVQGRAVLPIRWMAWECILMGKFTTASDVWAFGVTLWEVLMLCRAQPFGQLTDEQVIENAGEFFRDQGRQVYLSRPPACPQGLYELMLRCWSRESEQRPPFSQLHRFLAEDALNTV
# Sequence of High affinity nerve growth factor receptor (P04629 whole entry): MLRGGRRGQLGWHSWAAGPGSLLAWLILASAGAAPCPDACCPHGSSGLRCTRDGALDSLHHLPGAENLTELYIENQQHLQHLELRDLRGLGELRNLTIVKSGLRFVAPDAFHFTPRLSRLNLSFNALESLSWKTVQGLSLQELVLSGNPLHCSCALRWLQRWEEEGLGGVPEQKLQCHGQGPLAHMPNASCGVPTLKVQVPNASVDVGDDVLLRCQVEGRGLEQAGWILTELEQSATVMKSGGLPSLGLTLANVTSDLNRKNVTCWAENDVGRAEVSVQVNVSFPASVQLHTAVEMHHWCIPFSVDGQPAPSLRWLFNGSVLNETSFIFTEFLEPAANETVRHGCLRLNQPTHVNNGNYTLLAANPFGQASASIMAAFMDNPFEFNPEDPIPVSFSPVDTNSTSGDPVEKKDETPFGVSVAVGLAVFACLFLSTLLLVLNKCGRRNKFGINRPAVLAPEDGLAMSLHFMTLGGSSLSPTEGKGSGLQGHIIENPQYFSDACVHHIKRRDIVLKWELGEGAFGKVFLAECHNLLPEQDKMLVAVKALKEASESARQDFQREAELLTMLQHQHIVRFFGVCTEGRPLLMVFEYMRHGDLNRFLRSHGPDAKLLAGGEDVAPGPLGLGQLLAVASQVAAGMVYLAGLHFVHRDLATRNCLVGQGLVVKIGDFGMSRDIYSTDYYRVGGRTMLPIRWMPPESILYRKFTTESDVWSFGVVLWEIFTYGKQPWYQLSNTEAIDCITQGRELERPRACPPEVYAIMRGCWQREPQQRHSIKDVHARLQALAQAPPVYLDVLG
# Sequence of Serine/threonine-protein kinase B-raf (P15056 whole entry): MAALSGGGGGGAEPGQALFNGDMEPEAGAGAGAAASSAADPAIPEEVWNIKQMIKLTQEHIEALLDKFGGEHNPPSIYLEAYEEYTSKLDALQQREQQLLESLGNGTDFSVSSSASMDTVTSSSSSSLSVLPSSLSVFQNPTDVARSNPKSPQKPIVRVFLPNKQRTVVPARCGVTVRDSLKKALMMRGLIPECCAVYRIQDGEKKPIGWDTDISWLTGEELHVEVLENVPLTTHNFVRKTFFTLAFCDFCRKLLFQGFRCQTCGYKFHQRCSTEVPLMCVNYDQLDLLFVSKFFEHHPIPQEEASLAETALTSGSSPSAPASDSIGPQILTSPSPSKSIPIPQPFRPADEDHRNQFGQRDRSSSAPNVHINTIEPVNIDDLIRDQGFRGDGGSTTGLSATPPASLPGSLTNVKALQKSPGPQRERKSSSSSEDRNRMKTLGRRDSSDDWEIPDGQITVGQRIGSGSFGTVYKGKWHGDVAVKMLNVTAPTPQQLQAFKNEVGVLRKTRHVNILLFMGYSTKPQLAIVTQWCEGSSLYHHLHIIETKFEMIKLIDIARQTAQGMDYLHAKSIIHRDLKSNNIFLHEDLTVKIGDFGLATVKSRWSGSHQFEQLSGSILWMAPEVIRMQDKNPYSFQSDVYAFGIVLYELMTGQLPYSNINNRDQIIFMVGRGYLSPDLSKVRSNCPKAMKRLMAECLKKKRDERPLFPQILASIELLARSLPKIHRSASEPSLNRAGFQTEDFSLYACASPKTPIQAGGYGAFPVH
structure (smiles),measurement,setting,value
COc1cccc2nc(Nc3cccc(NC(=O)c4ccc(N5CCN(C)CC5)c(C(F)(F)F)c4)c3)ccc12,GI50,[1],895 nM
same,GI50,[2],1520 nM
same,GI50,[3],802 nM
same,Activity,[4],2%
same,GI50,[5],1650 nM
same,GI50,[6],1550 nM
same,Activity,[7],5.4%
same,IC50,[8],34000 nM
same,GI50,[9],968 nM
same,GI50,[10],868 nM
same,LC50,[10],4100 nM
same,TGI,[10],1890 nM
same,"viability at 48 h, 10 µM",[11],66.1%
same,GI50,[12],1800 nM
same,GI50,[13],851 nM
same,LC50,[13],4250 nM
same,TGI,[13],1900 nM
same,GI50,[14],1110 nM
same,LC50,[14],18400 nM
same,TGI,[14],3650 nM
same,IC50,[15],2940 nM
same,GI50,[16],1360 nM
same,Activity,[17],4.1%
same,Activity,[18],Active
same,GI50,[19],2790 nM
same,GI50,[20],909 nM
same,Activity,[21],29.6%
same,Activity,[22],3.5%
same,Activity,[23],2.7%
same,IC50,[24],2250 nM
same,GI50,[25],712 nM
same,TGI,[25],1610 nM
same,CC50,[25],3650 nM
same,GI50,[26],1690 nM
same,GI50,[27],1730 nM
same,GI50,[28],950 nM
same,"viability at 48 h, 10 µM",[29],77.1%
same,viability at 1.25 µM,[30],82.7%
same,Activity,[31],8.6%
same,GI50,[32],1120 nM
same,viability at 5 µM,[33],61.5%
same,GI50,[34],1530 nM
same,GI50,[35],1210 nM
same,"viability at 48 h, 3 µM",[36],88.6%
same,GI50,[37],1500 nM
same,GI50,[38],937 nM
same,"viability at 48 h, 1 µM",[39],86.5%
same,GI50,[40],2260 nM
same,GI50,[41],1260 nM
same,GI50,[42],1810 nM
same,GI50,[43],1000 nM
CCN1CCN(c2cc(C(=O)Nc3cccc(Nc4ccc5c(OC)cccc5n4)c3)cc(C(F)(F)F)c2)CC1,GI50,[1],3280 nM
same,GI50,[2],1550 nM
same,GI50,[3],918 nM
same,Activity,[4],1%
same,GI50,[5],1330 nM
same,GI50,[6],1800 nM
same,Activity,[7],0.6%
same,IC50,[8],1670 nM
same,GI50,[9],3670 nM
same,GI50,[10],872 nM
same,LC50,[10],12400 nM
same,TGI,[10],3540 nM
same,"viability at 48 h, 10 µM",[11],68.2%
same,GI50,[12],4940 nM
same,GI50,[13],679 nM
same,LC50,[13],17600 nM
same,TGI,[13],2280 nM
same,GI50,[14],749 nM
same,LC50,[14],14600 nM
same,TGI,[14],4050 nM
same,IC50,[15],2230 nM
same,GI50,[16],5300 nM
same,Activity,[17],0.9%
same,Activity,[18],Active
same,GI50,[19],3780 nM
same,GI50,[20],654 nM
same,Activity,[21],26.8%
same,Activity,[22],0.5%
same,Activity,[23],0.3%
same,IC50,[24],538 nM
same,GI50,[25],572 nM
same,TGI,[25],1210 nM
same,CC50,[25],2560 nM
same,GI50,[26],1970 nM
same,GI50,[27],4600 nM
same,GI50,[28],720 nM
same,"viability at 48 h, 10 µM",[29],74.1%
same,viability at 1.25 µM,[30],86.5%
same,Activity,[31],0.6%
same,GI50,[32],917 nM
same,viability at 5 µM,[33],72%
same,GI50,[34],1210 nM
same,GI50,[35],3410 nM
same,"viability at 48 h, 3 µM",[36],82.8%
same,GI50,[37],1290 nM
same,GI50,[38],798 nM
same,"viability at 48 h, 1 µM",[39],81.5%
same,GI50,[40],2850 nM
same,GI50,[41],805 nM
same,GI50,[42],1880 nM
same,GI50,[43],2050 nM
